Results on three molecules are retold here after article PMC11602115 (Journal of Medicinal Chemistry, 2017).

For data set [1], the system named is primary human pulmonary arterial smooth muscle cells. As to the kind of experiment: HTRF cAMP assay in primary human pulmonary arterial smooth muscle cells. The format is cell-based. As to the method:
Additional In Vitro Assays […]
Compounds were also evaluated in HTRF cAMP assays using primary human pulmonary arterial smooth muscle cells (Cell Applications, Inc., #352Kq05a, or ThermoFisher/Gibco, #C0095C) using the same basic assay protocol outlined in the Experimental section. Cells were cultured as recommended by the suppliers, used at low passage and seeded into 384qwell assay plates at a density of 700q900 cell per well

The test system of data set [2] is MCT-induced PAH. As to the kind of experiment: Rat monocrotaline (MCT) model of PAH, preventative oral dosing. The data set is classed as in vivo, male Sprague-Dawley rats. Conditions: for inhibition of the MCT-induced increase in RV/(LV + S): oral, twice daily for 21 days, preventative mode. As for the experimental part:
Following anesthesia by intraperitoneal injection of 30 mg/kg pentobarbital, rats were given a subcutaneous injection of either 60 mg/kg MCT (Sigma, catalog no. C2401-1G) or 0.9% saline for the sham group. […] Hemodynamic measurements were performed with animals from the 30 mg/kg group (but not the 10 mg/kg group) anesthetized with 60 mg/kg pentobarbital. Under anesthesia, each animal was intubated with a rodent ventilator (Harvard Apparatus, model 683) at 70 breaths/min of a rate and a tidal volume of 2.5 mL in supine position on a heating pad set at 37 °C. A small opening in the apex of the right ventricle was made using a 23G needle, then a Millar catheter (Millar Instruments, Inc. model SPR-320) was placed into the right ventricle through the opening in the apex, then into the pulmonary artery (PA) for the pressure measurement. A second catheter was inserted through the […] for the measurement of mean arterial pressure. After stabilization, heart rate, mean arterial pressure, and systolic RV pressure were calculated from 20 consecutive heart beats in each rat.
The ventricles and lungs were excised and weighed. The ratio of RV weight to left ventricle plus septum (LV + S) was calculated as an index of right ventricular hypertrophy.
As the collection and preservation of the tissues are very resource intensive, 5 animals were selected from each group for measurement of vessel thickness; this was sufficient to obtain clear statistical differences between groups. Paraffin sections of 4 μm thickness were obtained from the lower region of the right lung and stained with hematoxylin/eosin. Analysis of the medial wall thickness of the pulmonary arterioles was performed. In brief, the external diameter and medial wall thickness were measured in 20 muscular arteries (25–100 μm external diameters) per lung section. For each artery, the medial wall thickness was expressed as follows: % wall thickness = [(external diameter – internal diameter)/external diameter] × 100. Each vessel was measured twice, perpendicularly along the long axis and short axis, and averages of both measurements were used.

A short description of data set [3]: Rat PK (iv and oral). To be noted: for AUC(0-inf) / bioavailability: Sprague-Dawley; for AUC(0-inf): after oral administration 10 mg/kg (5m 10.5); for bioavailability: po, 10 mg/kg; for unbound Cmax plasma concentration: single oral dose 30 mg/kg, based on 1% free fraction of the measured Cmax. The format is in vivo.
For data set [4], the target named is CYP 3A4 (Homo sapiens, UniProt P08684). Put plainly: Cytochrome P450 inhibition, CYP3A4. The data set is classed as in vitro ADME.
Chain of CYP 3A4 (P08684 whole entry): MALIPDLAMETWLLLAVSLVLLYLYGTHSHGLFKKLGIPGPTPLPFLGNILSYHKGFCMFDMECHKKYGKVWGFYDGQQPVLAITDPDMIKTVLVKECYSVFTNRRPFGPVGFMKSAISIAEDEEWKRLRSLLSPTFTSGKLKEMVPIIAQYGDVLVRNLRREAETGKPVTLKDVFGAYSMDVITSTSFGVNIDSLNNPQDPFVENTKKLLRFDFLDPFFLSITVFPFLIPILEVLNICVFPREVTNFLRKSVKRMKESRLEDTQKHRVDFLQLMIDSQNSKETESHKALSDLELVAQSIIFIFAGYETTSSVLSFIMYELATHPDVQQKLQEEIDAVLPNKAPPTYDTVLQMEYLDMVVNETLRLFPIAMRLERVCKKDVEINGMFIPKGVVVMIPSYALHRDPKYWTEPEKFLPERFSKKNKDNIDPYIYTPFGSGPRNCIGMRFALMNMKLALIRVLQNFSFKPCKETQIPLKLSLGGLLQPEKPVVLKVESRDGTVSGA
Data set [5] has as its target T1, EP3v6 (Homo sapiens, UniProt P43115).
T1 sequence (P43115 1-374 isoform P43115-4): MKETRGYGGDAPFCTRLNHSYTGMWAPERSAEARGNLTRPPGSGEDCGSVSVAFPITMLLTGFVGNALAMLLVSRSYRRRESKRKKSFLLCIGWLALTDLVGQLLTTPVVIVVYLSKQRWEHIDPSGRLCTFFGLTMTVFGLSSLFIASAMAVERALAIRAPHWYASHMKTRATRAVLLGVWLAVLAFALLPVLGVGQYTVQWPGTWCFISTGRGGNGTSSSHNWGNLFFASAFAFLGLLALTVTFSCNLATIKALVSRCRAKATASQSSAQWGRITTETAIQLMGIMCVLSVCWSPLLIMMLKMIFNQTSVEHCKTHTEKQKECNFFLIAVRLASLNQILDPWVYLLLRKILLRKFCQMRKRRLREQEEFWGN
As to the kind of experiment: Melanophore dispersion assay, EP3v6. The data set is classed as cell-based. The arrangement: expressed in transfected cells; host or cells: melanophores (transient, electroporation). Conditions: for EC50 / EP3v6 % I.A: melanophore dispersion assay (Gi); for behaviour at EP3 in melanophore platform: potencies similar to binding affinities. As for the experimental part:
For the EP3v6 receptor functional assay, melanophores were transfected by electroporation using 20 μg of recombinant human EP3v6 receptor plasmid DNA per 400 μL of cell suspension. Transfected cells were immediately resuspended in fresh growth medium and plated in 384-well clear, polystyrene microplates. Plated cells were incubated at 27 °C for 48 h after transfection in order to achieve optimal receptor expression. To perform the assay, growth medium was removed from the assay plates and replaced with assay buffer (40 μL/well, 0.7× PBS, pH 7.3, supplemented with 20 nM melatonin to induce pigment aggregation). Following a 90 min incubation at room temperature, a 650 nm absorbance reading was collected and test compounds (10 μL per well) were transferred to the assay plates. Plates were incubated for 90 min at room temperature to allow compound-induced pigment redistribution to take place, and final absorbance reading was then collected. Test compounds were solubilized and serially diluted in DMSO, using 5-fold dilutions, to generate a 10-point dose–response curve with a top concentration of 10 μM (final assay concentration). Samples were then further diluted in assay buffer to achieve a 5× stock prior to addition to the assay plates. A SpectraMax absorbance plate reader (Molecular Devices, Inc.) was used for data collection.
Table Sup2: Data with some comparator compounds in functional assays. […]

The target of data set [6] is DP1 (Homo sapiens, UniProt Q13258). As to the kind of experiment: Radioligand binding, DP1 ([3H]-PGD2). Conditions: cloned human receptor; mean of two determinations. As to the method: Additional (non-IP) receptor binding assays were carried out by MDS Pharma (Taiwan) and CEREP (France).
Chain of DP1 (Q13258 whole entry): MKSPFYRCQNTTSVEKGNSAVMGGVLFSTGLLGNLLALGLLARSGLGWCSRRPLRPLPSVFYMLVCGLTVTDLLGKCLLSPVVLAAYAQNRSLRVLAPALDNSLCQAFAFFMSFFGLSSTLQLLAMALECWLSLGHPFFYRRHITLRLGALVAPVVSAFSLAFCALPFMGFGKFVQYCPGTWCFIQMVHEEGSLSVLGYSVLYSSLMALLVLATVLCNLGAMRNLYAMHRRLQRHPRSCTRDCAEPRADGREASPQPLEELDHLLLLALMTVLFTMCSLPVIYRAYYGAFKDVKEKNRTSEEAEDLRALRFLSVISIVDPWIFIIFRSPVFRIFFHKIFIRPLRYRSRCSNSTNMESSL
The target of data set [7] is monkey IP. Put plainly: Radioligand binding, monkey IP ([3H]-iloprost). As to the method: CHO-K1 cells expressing recombinant IP receptors were harvested, washed with ice-cold phosphate buffered saline, pH 7.4 (PBS), and then centrifuged at 48 000g for 20 min at 4 °C. The resulting cell pellet was then resuspended in ice-cold PBS containing 20 mM HEPES, pH 7.4, and 0.1 mM EDTA, homogenized on ice using a Brinkman Polytron, and centrifuged (48 000g for 20 min at 4 °C). This resuspension and centrifugation process was repeated one further time. Crude membrane pellets were stored at −80 °C until used for radioligand binding assays.
Assay incubations were terminated by rapid filtration through PerkinElmer GF/C filtration plates pretreated with 0.3% PEI, under vacuum pressure using a 96-well Packard filtration apparatus, followed by multiple washes with ice-cold wash buffer (PBS containing 20 mM HEPES and 0.1 mM EDTA, pH 7.4). Plates were then dried at 45 °C for a minimum of 2 h. Finally, 25 μL of BetaScint scintillation cocktail was added to each well and plates were counted in a Packard TopCount scintillation counter. In each competition study, test compounds were dosed at 10 concentrations with triplicate determinations at each test concentration.

The mark [8] stands for this setting: terminal half-life after iv 2 mg/kg (5m 2.1).
[9] abbreviates: total clearance, iv 2 mg/kg (5m 2.1).

The structures appear in SMILES notation.

In the case of `O=C(O)COC[C@H]1CC[C@H](COC(=O)N(c2ccccc2)c2ccc(Cl)cc2)CC1` [5c, Sodium 2-(((1r,4r)-4-(((4-Chlorophenyl)(phenyl)carbamoyloxy)methyl)cyclohexyl)methoxy)acetate], the “Efficacy (% vs. Iloprost) [95% CI], primary human PASMC cAMP” value in data set [1] is 65 [55, 75] %. The “effect on hypertrophy (RV/(LV + S))” value in data set [2] (10 mg/kg oral twice daily) is on record as “did not show a statistically significant effect”. Further, the “pulmonary vessel wall thickness” value in data set [2] (30 mg/kg oral twice daily, 5 animals) is given as “significantly reduce”. In data set [2] (30 mg/kg oral twice daily, subset of the test group (5 animals)), the “MCT-induced increase in pulmonary arterial pressure (mPAP)” value is listed as “significantly reduce”. In addition, the “inhibition of the MCT-induced increase in RV/(LV + S)” value in data set [2] was “dose-dependent inhibition”. The half-life in data set [3] (CD-1 (mouse), Sprague-Dawley (rat), plasma, oral, rodents, read-out: elimination half-life in rodents) was 5 to 8 h. In data set [3] (plasma), this molecule showed an area under the curve AUC(0-inf) of 14600 ng·h/mL and a bioavailability of 57%. Further, in data set [3] (iv 2 mg/kg (Table 4)), the “AUC0–inf” value is 5090 ± 1620 ng·h/mL, the Clobs is recorded as 0.427 ± 0.163 L h^–1 kg^–1 and the T1/2 is 6.72 ± 0.98 h. The “unbound Cmax” value in data set [3] (oral 10 mg/kg, calculated from the PK experiment) is listed as “around 100 nM”. For the same molecule, in data set [3] (po 10 mg/kg (5m 10.5)), the Cmax was determined as 3700 ng/mL and the Tmax was 1.5 h. Besides, in data set [3] (po 10.0 mg/kg (Table 4)), the Cmax came to 3700 ± 1340 ng/mL, the F is reported as 57.4% and the T1/2 came out at 5.45 ± 1.52 h. Moreover, in data set [3], the “unbound Cmax plasma concentration” value is given as 300 nM. Further, the T1/2 in data set [3] (setting [8]) is recorded as 6.7 h. In data set [3] (setting [9]), this molecule had a Clobs of 0.43 L h^–1 kg^–1. The IC50 in data set [4] was greater than 50000 nM. Also, in data set [5], a half-maximal effect (EC50) was put at 230 nM, the “EP3v6 % I.A” value came out at 98% and the “behaviour at EP3 in melanophore platform” value was “behaved as EP3 agonists”. The molecule also returned a Ki in data set [6] of 2600 nM.

With `O=C(O)COC[C@H]1CC[C@H](COC(=O)N(c2ccccc2)c2cccc(F)c2)CC1` [5g, 2-(((1r,4r)-4-(((3-Fluorophenyl)(phenyl)carbamoyloxy)methyl)cyclohexyl)methoxy)acetic Acid], the “inhibition of the MCT-induced increase in RV/(LV + S)” value in data set [2] is reported as “dose-dependent inhibition”. In data set [3] (plasma), this molecule gave an AUC(0-inf) of 7900 ng·h/mL and a bioavailability of 39%. In data set [3] (po 10 mg/kg (5m 10.5)), the Cmax turned out to be 3400 ng/mL and the time to peak (Tmax) came to 0.3 h. Besides, the “unbound Cmax plasma concentration” value in data set [3] amounted to 300 nM. Besides, the T1/2 in data set [3] (setting [8]) was determined as 3.4 h. Further, the Clobs in data set [3] (setting [9]) was found to be 1.2 L h^–1 kg^–1. This molecule also gave an IC50 in data set [4] greater than 50000 nM. For the same molecule, the “behaviour at EP3 in melanophore platform” value in data set [5] is reported as “behaved as EP3 agonists”. Moreover, the Ki in data set [6] amounted to 1850 nM. The same molecule came in with a Ki in data set [7] of 2.6 nM.

Take `CC#CCC(C)[C@H](O)/C=C/[C@@H]1[C@H]2C/C(=C/CCCC(=O)O)C[C@H]2C[C@H]1O` (stereo partly drawn) [iloprost]: the “Efficacy (% vs. Iloprost) [95% CI], primary human PASMC cAMP” value in data set [1] is reported as 100%. Also, the concentration giving a half-maximal response (EC50) in data set [1] (Homo sapiens, PASMC, n = 8, read-out: EC50 [95% CI], primary human PASMC cAMP) was found to be 2.9 nM. For the same molecule, in data set [5], the EC50 worked out at 280 nM and the “EP3v6 % I.A” value is listed as 68%. The molecule also gave a Ki in data set [7] of 1.6 nM.
